In patent publication US20060275812A1, “Assay for agonists and antagonists of ion channels and for regulators of genetic expression” (University of Pittsburgh of the Commonwealth System of …, priority 2005, published 2006):

Tested on: vTT infected 7b cells
Assay: Detection of apoptosis (DePsipher MPT; CaspACE activated caspases)
Assay type: cell-based
Details: overnight capsaicin (3 μm) stimulation
Experimental: Detection of Apoptosis. The DePsipher kit (R&D systems, Minneapolis, Minn.) was used to detect the initiation of mitochondrial permeability transition (MPT) in 7b cells. Briefly, vTT or QOZ infected cells (12 hpi, 0.1 PFU/cell) were incubated with 3 μm capsaicin for one hour at 37° C. in a 5% CO2 incubator. Cells were then loaded with 1 μl DePsipher/ml in pre-warmed culture media for 15-20 min at 37° C. in a 5% CO2 incubator. Following two washes in prewarmed media, cells were immediately imaged using an inverted fluorescence microscope (Carl Zeiss Inc.). For activated caspase detection, the CaspACE FITC-VAD-FMK In-Situ Marker kit (Promega, Madison, Wis.) was used. Briefly, CaspACE FITC-VAD-FMK was added to a final concentration of 10 μM to 7b cells infected with vTT or QOZ virus (12 hpi, 0.3 PFU/cell). Cells were incubated for 20 minutes at 37° C. in a 5% CO2 incubator. Following two washes in PBS, cells were fixed for 30 minutes in 10% formalin, washed three times with PBS and imaged using an inverted fluorescence microscope (Carl Zeiss Inc.).

Q: COc1cc(CNC(=O)CCCC/C=C/C(C)C)ccc1O [capsaicin] was tested. Which activated caspases did it give?
A: positive
